Data as given in US10662203B2, “Pyrido[2,3-b]indole compounds for the treatment and prophylaxis of bacterial infection” (Hoffmann-La Roche Inc., priority 2017, dated 2020).

How the values were obtained:
Assay in all cases: 50% growth inhibitory concentration (IC50) determination assay
Assay type in all cases: cell-based
[1] = system: K. pneumoniae (ATCC10031); settings: Klebsiella pneumoniae, Iso-Sensitest broth, 0.098 = detection limit
Experimental: (§1) Stock compounds in DMSO were serially two-fold diluted (range from 50 to 0.097 μM final concentration) in 384 wells microtiter plates and inoculated with 49 μL the bacterial suspension in Iso-Sensitest broth medium to have a final cell concentration of ˜5×10^5 CFU/mL in a final volume/well of 50 μL/well. Microtiter plates were incubated at 35±2° C. Bacterial cell growth was determined with the measurement of optical density at λ=600 nm each 20 minutes over a time course of 16 h. […] GP-6 (Example 4.131 disclosed in WO 2012/125746 A1) was used as the reference compound in Table 6-8. […] The data of IC50 over S. aureus (ATCC29213), K. pneumoniae (ATCC10031), and A. baumannii (ATCC17978) are illustrated in Table 6.

[2] = system: S. aureus (ATCC29213); settings: Staphylococcus aureus, Iso-Sensitest broth, 0.098 = detection limit
Experimental: as §1

[3] = system: A. baumannii (ATCC17978); settings: Iso-Sensitest broth, 0.098 = detection limit
Experimental: as §1

[4] = Acinetobacter baumannii, ATCC17978, A. baumannii ATCC17978

Row | SMILES | IC50 [1] [µM] | IC50 [2] [µM] | IC50 ([3]; A. baumannii ATCC17978) [µM] | IC50 [3, 4] [µM]
1 | CNc1cc(F)c(F)c2c1[nH]c1ncc(-c3cnc4c(c3)c(=O)c(C(=O)O)cn4C)c(N3C[C@H](F)[C@@H](N(C)C)C3)c12 [Example 1.168] | < 0.098 | < 0.098 | 0.287 | –
2 | CNc1cc(F)c(F)c2c1[nH]c1ncc(-c3cnc4c(c3)c(=O)c(C(=O)O)cn4C)c(N3CCOCC3)c12 [Example 1.08] | < 0.098 | < 0.098 | – | 0.155
3 | CNc1cc(F)c(F)c2c1[nH]c1ncc(-c3cnc4c(c3)c(=O)c(C(=O)O)cn4C)c(N3C[C@H]4OCCN(C)[C@H]4C3)c12 [Example 3.14A] | < 0.098 | < 0.098 | – | 0.075
4 | CNc1cc(F)c(Cl)c2c1[nH]c1ncc(-c3cnc4c(c3)c(=O)c(C(=O)O)cn4C)c(N(C)C)c12 [Example 1.117] | – | – | – | 0.164
5 | CNc1cc(F)c(F)c2c1[nH]c1ncc(-c3cnc4c(c3)c(=O)c(C(=O)O)cn4C(C)CCO)c(N(C)C)c12 (stereo not shown) [Example 1.145] | 0.202 | < 0.098 | – | 0.341
6 | CCn1cc(C(=O)O)c(=O)c2cc(-c3cnc4[nH]c5c(NC)cc(F)c(F)c5c4c3N(C)CCOC)cnc21 [Example 1.06] | 0.17 | < 0.098 | – | 0.849
7 | CNc1cc(F)cc2c1[nH]c1ncc(-c3cnc4c(c3)c(=O)c(C(=O)O)cn4C)c(N3CCCN(C)CC3)c12 [Example 1.185] | < 0.098 | 0.321 | – | 0.524
8 | CCn1cc(C(=O)O)c(=O)c2cc(-c3cnc4[nH]c5c(NC)cc(F)c(F)c5c4c3N(C)C)cnc21 [Example 1.18] | 0.132 | < 0.098 | – | 0.326
9 | CNc1cc(F)c(F)c2c1[nH]c1ncc(-c3cnc4c(c3)c(=O)c(C(=O)O)cn4C)c(N3CCN[C@@H](C(F)(F)F)C3)c12 [Example 4.01B, (R)-6-(5,6-Difluoro-8-(methylamino)-4-(3-(trifluoromethyl)piperazin-1-yl)-9H-pyrido[2,3-b]indol-3-yl)-1-methyl-4-oxo-1,4-dihydro-1,8-naphthyridine-3-carboxylic acid] | – | – | – | 0.352
10 | CNc1cc(F)cc2c1[nH]c1ncc(-c3cnc4c(c3)c(=O)c(C(=O)O)cn4C)c(N3C[C@H](F)[C@@H](N(C)C)C3)c12 [Example 1.169] | < 0.098 | < 0.098 | – | 0.229
11 | CNc1cc(F)c(F)c2c1[nH]c1ncc(-c3cnc4c(c3)c(=O)c(C(=O)O)cn4NC)c(N3C[C@H]4OCCN(C)[C@H]4C3)c12 [Example 3.13A] | < 0.098 | < 0.098 | – | 0.152
12 | CNc1cc(F)c(F)c2c1[nH]c1ncc(-c3cnc4c(c3)c(=O)c(C(=O)O)cn4C)c(N3CC[C@]4(CN(C)CCO4)C3)c12 [Example 3.16B] | < 0.098 | < 0.098 | – | 0.19
13 | CNc1cc(F)c(F)c2c1[nH]c1ncc(-c3cnc4c(c3)c(=O)c(C(=O)O)cn4Cc3ccncc3)c(N(C)C)c12 [Example 1.30] | – | < 0.098 | – | 0.242
14 | CNc1cc(F)c(F)c2c1[nH]c1ncc(-c3cnc4c(c3)c(=O)c(C(=O)O)cn4C3CCOC3)c(N(C)C)c12 (stereo not shown) [Example 1.21] | 0.154 | < 0.098 | – | 0.469
15 | CNc1cc(F)c(F)c2c1[nH]c1ncc(-c3cnc4c(c3)c(=O)c(C(=O)O)cn4C)c(N3CCNC(C(F)(F)F)C3)c12 (stereo not shown) [Example 1.09] | 0.104 | < 0.098 | – | 0.818
16 | CNc1cc(F)c(F)c2c1[nH]c1ncc(-c3cnc4c(c3)c(=O)c(C(=O)O)cn4C)c(N3CCSCC3)c12 [Example 1.97] | 0.257 | < 0.098 | – | 0.507
17 | CNc1cc(F)c(F)c2c1[nH]c1ncc(-c3cnc4c(c3)c(=O)c(C(=O)O)cn4C)c(N3CC4[C@H](CC[C@@H]4N(C)C)C3)c12 (stereo partly shown) [Example 1.288] | – | – | – | 0.269
18 | CNc1cc(F)cc2c1[nH]c1ncc(-c3cnc4c(c3)c(=O)c(C(=O)O)cn4C)c(N3CCC(F)(F)C3)c12 [Example 1.16] | < 0.098 | < 0.098 | – | 0.308
19 | CNc1cc(F)c(F)c2c1[nH]c1ncc(-c3cnc4c(c3)c(=O)c(C(=O)O)cn4C)c(N3CCC(N(C)C4CC4)C3)c12 (stereo not shown) [Example 1.116] | – | – | – | 0.355
20 | CCN1CCN(c2c(-c3cnc4c(c3)c(=O)c(C(=O)O)cn4C)cnc3[nH]c4c(NC)cc(F)c(F)c4c23)CC1 [Example 1.233] | < 0.098 | 0.169 | – | 0.3
21 | CCC(Cn1cc(C(=O)O)c(=O)c2cc(-c3cnc4[nH]c5c(NC)cc(F)c(F)c5c4c3N3CCOCC3)cnc21)N(C)C (stereo not shown) [Example 1.79] | < 0.098 | < 0.098 | – | 0.173
22 | CNc1cc(F)c(F)c2c1[nH]c1ncc(-c3cnc4c(c3)c(=O)c(C(=O)O)cn4C)c(N(C)C)c12 [Example 1.01, 6-[4-(Dimethylamino)-5,6-difluoro-8-(methylamino)-9H-pyrido[2,3-b]indol-3-yl]-1-methyl-4-oxo-1,8-naphthyridine-3-carboxylic acid] | < 0.098 | < 0.098 | – | < 0.098

Row | SMILES | IC50 [1] [µM] | IC50 [2] [µM] | IC50 ([3]; A. baumannii ATCC17978) [µM] | IC50 [3, 4] [µM]
23 | CNc1cc(F)c(F)c2c1[nH]c1ncc(-c3cnc4c(c3)c(=O)c(C(=O)O)cn4C)c(N3CCC(NC4CC4)C3)c12 (stereo not shown) [Example 1.115] | < 0.098 | < 0.098 | – | 0.049
24 | CCN(CC)CCn1cc(C(=O)O)c(=O)c2cc(-c3cnc4[nH]c5c(NC)cc(F)c(F)c5c4c3N3CCOCC3)cnc21 [Example 1.73] | < 0.098 | < 0.098 | – | 0.238
25 | CNc1cc(F)cc2c1[nH]c1ncc(-c3cnc4c(c3)c(=O)c(C(=O)O)cn4C)c(N3C[C@@H]4OCCN(C)[C@@H]4C3)c12 [Example 3.22B] | < 0.098 | < 0.098 | – | 0.256
26 | CNc1cc(Cl)cc2c1[nH]c1ncc(-c3cnc4c(c3)c(=O)c(C(=O)O)cn4C)c(N3CC4C(N(C)C)CO[C@@H]4C3)c12 (stereo partly shown) [Example 1.277] | < 0.098 | < 0.098 | – | 0.48
27 | CNc1cc(F)cc2c1[nH]c1ncc(-c3cnc4c(c3)c(=O)c(C(=O)O)cn4C)c(N3CCSCC3)c12 [Example 1.66] | < 0.098 | < 0.098 | – | 0.415
28 | CNc1cc(F)c(F)c2c1[nH]c1ncc(-c3cnc4c(c3)c(=O)c(C(=O)O)cn4NC)c(N(C)C)c12 [Example 1.72] | < 0.098 | < 0.098 | – | < 0.098
29 | CNc1cc(F)c(F)c2c1[nH]c1ncc(-c3cnc4c(c3)c(=O)c(C(=O)O)cn4C)c(N3CCOC(COC)C3)c12 (stereo not shown) [Example 1.10] | – | – | – | 0.192
30 | CNc1cc(F)c(F)c2c1[nH]c1ncc(-c3cnc4c(c3)c(=O)c(C(=O)O)cn4CC(C)(C)N(C)C)c(N(C)C)c12 [Example 1.178] | < 0.098 | < 0.098 | – | 0.235
31 | CNc1cc(F)cc2c1[nH]c1ncc(-c3cnc4c(c3)c(=O)c(C(=O)O)cn4C)c(N3CCC(F)(CN(C)C)C3)c12 (stereo not shown) [Example 1.109] | < 0.098 | < 0.098 | – | 0.066
32 | CNc1c(F)c(F)cc2c1[nH]c1ncc(-c3cnc4c(c3)c(=O)c(C(=O)O)cn4C3CCNC3)c(N3CCCC3)c12 (stereo not shown) [Example 1.76] | < 0.098 | < 0.098 | – | 0.643
33 | CNc1cc(Cl)cc2c1[nH]c1ncc(-c3cnc4c(c3)c(=O)c(C(=O)O)cn4C)c(N3C[C@H]4CC[C@H](N(C)C)[C@H]4C3)c12 [Example 3.20A] | – | – | – | 0.149
34 | CNc1cc(F)c(F)c2c1[nH]c1ncc(-c3cnc4c(c3)c(=O)c(C(=O)O)cn4C)c(N3CCN[C@H](C(F)(F)F)C3)c12 [Example 4.01A, (S)-6-(5,6-Difluoro-8-(methylamino)-4-(3-(trifluoromethyl)piperazin-1-yl)-9H-pyrido[2,3-b]indol-3-yl)-1-methyl-4-oxo-1,4-dihydro-1,8-naphthyridine-3-carboxylic acid] | – | – | – | 0.393
35 | CNc1cc(Cl)cc2c1[nH]c1ncc(-c3cnc4c(c3)c(=O)c(C(=O)O)cn4NC)c(N3CC[C@H]4CN(C)C[C@H]43)c12 [Example 3.12A] | – | – | – | 0.081
36 | CNc1cc(F)c(F)c2c1[nH]c1ncc(-c3cnc4c(c3)c(=O)c(C(=O)O)cn4NC)c(N3CC[C@@H](N(C)C)C3)c12 [Example 1.257] | – | – | – | 0.201
37 | CNc1cc(F)c(F)c2c1[nH]c1ncc(-c3cnc4c(c3)c(=O)c(C(=O)O)cn4C)c(N3CCC(O)(C(F)(F)F)C3)c12 (stereo not shown) [Example 1.129] | – | < 0.098 | – | 0.302
38 | CNc1cc(F)c(F)c2c1[nH]c1ncc(-c3cnc4c(c3)c(=O)c(C(=O)O)cn4C)c(N3C[C@H](F)[C@@H](N(C)C)C3)c12 [Example 1.159] | – | – | – | 0.189
39 | CNc1cc(Cl)cc2c1[nH]c1ncc(-c3cnc4c(c3)c(=O)c(C(=O)O)cn4C)c(N3CC4[C@H](CC[C@H]4N(C)C)C3)c12 (stereo partly shown) [Example 1.285] | – | – | – | 0.253
40 | CNc1cc(F)cc2c1[nH]c1ncc(-c3cnc4c(c3)c(=O)c(C(=O)O)cn4C)c(N3CCC(N(C)C4CC4)C3)c12 (stereo not shown) [Example 1.118] | – | – | – | 0.521
41 | CNc1cc(Cl)cc2c1[nH]c1ncc(-c3cnc4c(c3)c(=O)c(C(=O)O)cn4C)c(N3C[C@@H]4CC[C@H](N(C)C)[C@@H]4C3)c12 [Example 3.20B] | – | – | – | 0.252
42 | CNc1cc(F)c(F)c2c1[nH]c1ncc(-c3cnc4c(c3)c(=O)c(C(=O)O)cn4C)c(N3CC4C(O)CO[C@@H]4C3)c12 (stereo partly shown) [Example 1.287] | – | – | – | 0.502
43 | CNc1cc(Cl)cc2c1[nH]c1ncc(-c3cnc4c(c3)c(=O)c(C(=O)O)cn4C)c(N3CC[C@H]4CN(C)C[C@H]43)c12 [Example 3.11A] | – | – | – | 0.122
